The source of these data is PMC6407917, “Identification of GSK3186899/DDD853651 as a Preclinical Development Candidate for the Treatment of Visceral Leishmaniasis” (Journal of Medicinal Chemistry, 2018).

Among the targets are PRKCB (Homo sapiens, UniProt P05771); GAK (Homo sapiens, UniProt O14976); MAP2K5 (Homo sapiens, UniProt Q13163); PIP4K2C (Homo sapiens, UniProt Q8TBX8); YES1 (Homo sapiens, UniProt P07947); CLK2 (Homo sapiens, UniProt P49760); CAMK1 (Homo sapiens, UniProt Q14012); TAOK1 (Homo sapiens, UniProt Q7L7X3); OXSR1 (Homo sapiens, UniProt O95747); ACVR1B (Homo sapiens, UniProt P36896); STK16 (Homo sapiens, UniProt O75716); LYN (Homo sapiens, UniProt P07948); NEK1 (Homo sapiens, UniProt Q96PY6); MAPK3 (Homo sapiens, UniProt P27361); FLT4 (Homo sapiens, UniProt P35916); TNK1 (Homo sapiens, UniProt Q13470); NLK (Homo sapiens, UniProt Q9UBE8); SYK (Homo sapiens, UniProt P43405); TESK2 (Homo sapiens, UniProt Q96S53); FGFR1 (Homo sapiens, UniProt P11362); TEK (Homo sapiens, UniProt Q02763).

Holding throughout (assay): biochemical
Holding throughout (design): species or system HEK293/K-562/placenta mixed human extract; Kinobeads chemoproteomic competition binding, quantified by TMT LC-MS/MS, dose response up to 20 uM

The structures appear in SMILES notation. pIC50: −log10 of the molar value.

Sequence of MAPK3 (P27361 whole entry): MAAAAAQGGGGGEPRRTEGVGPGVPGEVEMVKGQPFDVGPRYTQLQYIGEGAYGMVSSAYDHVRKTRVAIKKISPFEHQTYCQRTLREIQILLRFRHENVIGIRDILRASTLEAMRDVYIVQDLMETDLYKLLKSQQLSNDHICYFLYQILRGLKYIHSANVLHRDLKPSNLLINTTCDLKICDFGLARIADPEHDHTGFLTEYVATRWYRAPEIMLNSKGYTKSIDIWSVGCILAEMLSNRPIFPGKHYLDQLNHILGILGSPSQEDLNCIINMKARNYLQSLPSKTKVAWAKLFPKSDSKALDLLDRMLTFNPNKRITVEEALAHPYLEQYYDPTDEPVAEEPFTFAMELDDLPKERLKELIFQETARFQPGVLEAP
Sequence of YES1 (P07947 whole entry): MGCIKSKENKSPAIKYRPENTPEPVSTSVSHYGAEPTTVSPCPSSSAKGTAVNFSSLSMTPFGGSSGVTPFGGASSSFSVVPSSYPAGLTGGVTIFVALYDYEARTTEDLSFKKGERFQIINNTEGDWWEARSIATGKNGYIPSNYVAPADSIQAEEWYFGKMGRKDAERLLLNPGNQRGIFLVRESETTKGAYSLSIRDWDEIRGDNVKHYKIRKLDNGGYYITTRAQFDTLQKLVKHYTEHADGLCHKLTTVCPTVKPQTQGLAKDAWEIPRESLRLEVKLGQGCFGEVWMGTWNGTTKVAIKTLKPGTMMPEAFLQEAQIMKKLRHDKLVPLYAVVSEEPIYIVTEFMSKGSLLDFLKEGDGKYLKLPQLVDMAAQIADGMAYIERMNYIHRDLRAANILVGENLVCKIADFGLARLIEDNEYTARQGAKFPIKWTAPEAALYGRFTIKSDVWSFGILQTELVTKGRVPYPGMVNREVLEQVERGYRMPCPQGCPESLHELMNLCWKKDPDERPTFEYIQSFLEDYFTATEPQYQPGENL
Sequence of TNK1 (Q13470 whole entry): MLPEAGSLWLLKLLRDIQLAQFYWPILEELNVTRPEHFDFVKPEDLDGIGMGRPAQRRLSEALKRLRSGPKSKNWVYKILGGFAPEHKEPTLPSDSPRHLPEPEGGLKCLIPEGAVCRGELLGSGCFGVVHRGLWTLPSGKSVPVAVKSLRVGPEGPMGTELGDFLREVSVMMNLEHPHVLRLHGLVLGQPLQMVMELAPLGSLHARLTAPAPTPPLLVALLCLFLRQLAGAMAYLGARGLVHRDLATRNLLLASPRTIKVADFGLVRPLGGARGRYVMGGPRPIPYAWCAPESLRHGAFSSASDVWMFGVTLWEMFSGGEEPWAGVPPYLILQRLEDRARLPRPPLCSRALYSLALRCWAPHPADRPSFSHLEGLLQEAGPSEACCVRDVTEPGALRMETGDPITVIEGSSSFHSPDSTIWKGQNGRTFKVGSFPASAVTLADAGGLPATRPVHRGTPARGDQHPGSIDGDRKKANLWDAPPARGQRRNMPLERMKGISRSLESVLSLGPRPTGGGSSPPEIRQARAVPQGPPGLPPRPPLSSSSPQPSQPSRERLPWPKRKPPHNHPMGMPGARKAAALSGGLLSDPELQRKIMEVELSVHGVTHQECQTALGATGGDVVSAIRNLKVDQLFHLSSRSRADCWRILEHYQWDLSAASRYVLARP
Sequence of LYN (P07948 whole entry): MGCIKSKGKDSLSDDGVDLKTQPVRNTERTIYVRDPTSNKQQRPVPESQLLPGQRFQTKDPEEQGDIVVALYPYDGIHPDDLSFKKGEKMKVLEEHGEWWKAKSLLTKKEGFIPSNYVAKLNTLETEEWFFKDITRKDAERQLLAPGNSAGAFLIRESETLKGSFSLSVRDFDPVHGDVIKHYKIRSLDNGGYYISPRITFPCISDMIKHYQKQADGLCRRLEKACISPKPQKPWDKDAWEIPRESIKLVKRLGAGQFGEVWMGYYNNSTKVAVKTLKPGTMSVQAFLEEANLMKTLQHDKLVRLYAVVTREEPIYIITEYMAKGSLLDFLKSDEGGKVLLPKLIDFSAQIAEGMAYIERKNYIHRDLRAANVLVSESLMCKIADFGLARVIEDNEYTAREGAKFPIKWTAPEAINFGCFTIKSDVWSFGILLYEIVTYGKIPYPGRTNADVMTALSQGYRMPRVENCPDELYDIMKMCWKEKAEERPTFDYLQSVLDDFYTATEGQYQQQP
Sequence of PRKCB (P05771 whole entry): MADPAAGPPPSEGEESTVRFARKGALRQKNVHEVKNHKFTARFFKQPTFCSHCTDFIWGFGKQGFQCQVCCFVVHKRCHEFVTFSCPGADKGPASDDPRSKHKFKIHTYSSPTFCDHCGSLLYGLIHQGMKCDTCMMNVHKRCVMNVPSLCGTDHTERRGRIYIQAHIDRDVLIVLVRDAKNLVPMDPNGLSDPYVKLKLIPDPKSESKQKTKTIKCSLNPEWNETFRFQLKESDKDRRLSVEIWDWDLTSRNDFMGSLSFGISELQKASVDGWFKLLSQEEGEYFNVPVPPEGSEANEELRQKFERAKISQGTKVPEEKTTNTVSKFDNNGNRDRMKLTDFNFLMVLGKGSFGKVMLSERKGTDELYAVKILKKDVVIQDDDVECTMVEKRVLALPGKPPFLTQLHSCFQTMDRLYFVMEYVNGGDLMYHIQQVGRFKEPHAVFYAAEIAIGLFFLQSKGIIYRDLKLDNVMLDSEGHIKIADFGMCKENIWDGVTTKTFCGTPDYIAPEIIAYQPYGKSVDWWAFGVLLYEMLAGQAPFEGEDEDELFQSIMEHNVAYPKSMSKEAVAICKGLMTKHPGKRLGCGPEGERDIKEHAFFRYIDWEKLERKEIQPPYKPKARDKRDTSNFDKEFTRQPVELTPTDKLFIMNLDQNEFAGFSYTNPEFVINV
Sequence of GAK (O14976 whole entry): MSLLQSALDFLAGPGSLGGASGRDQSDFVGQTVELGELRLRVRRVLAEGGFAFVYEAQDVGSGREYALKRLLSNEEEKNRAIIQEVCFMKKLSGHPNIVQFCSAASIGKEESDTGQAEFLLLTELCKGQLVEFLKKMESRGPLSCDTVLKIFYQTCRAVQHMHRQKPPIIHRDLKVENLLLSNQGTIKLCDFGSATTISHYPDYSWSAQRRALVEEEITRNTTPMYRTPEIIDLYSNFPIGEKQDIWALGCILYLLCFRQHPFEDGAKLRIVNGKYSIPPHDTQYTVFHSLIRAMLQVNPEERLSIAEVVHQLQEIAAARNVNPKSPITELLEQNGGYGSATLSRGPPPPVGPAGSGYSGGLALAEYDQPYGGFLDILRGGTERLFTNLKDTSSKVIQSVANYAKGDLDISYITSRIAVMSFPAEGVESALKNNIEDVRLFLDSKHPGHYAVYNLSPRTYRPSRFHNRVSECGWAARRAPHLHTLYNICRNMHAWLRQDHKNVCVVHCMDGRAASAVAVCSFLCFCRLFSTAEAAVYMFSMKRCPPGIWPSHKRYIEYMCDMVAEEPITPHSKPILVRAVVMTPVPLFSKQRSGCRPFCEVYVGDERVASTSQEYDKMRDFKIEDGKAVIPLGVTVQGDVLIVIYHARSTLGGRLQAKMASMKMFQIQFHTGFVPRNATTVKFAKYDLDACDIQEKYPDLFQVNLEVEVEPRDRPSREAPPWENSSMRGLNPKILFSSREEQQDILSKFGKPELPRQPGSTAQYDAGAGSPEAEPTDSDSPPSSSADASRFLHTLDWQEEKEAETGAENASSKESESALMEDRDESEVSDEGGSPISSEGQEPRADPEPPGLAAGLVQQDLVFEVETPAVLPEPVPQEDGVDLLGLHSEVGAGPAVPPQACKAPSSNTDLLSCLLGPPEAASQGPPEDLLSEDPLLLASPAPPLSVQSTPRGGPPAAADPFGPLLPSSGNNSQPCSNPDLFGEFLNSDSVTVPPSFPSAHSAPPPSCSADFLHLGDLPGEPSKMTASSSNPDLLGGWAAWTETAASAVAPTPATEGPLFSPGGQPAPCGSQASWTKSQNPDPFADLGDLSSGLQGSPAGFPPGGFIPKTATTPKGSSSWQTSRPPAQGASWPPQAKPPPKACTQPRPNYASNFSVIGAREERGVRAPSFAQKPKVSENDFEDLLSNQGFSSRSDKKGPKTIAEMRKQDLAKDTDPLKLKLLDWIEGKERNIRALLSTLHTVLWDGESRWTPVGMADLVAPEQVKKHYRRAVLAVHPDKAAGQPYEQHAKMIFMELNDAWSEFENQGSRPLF
Sequence of TESK2 (Q96S53 whole entry): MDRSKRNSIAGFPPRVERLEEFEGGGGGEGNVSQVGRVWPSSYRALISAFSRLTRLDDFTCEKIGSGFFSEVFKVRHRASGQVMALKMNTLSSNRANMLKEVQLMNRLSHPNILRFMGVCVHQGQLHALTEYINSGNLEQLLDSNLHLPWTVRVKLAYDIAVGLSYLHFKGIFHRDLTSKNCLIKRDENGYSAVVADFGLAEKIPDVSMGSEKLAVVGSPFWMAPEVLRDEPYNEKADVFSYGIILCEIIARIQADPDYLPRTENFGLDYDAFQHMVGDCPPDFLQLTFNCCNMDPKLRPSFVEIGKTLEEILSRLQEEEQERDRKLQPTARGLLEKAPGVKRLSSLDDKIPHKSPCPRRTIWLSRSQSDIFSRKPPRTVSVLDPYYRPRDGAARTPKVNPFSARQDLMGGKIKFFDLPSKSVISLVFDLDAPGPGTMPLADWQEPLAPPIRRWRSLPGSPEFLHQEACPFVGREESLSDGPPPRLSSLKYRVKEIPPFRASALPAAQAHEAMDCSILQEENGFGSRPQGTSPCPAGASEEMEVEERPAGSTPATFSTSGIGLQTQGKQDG
Sequence of STK16 (O75716 whole entry): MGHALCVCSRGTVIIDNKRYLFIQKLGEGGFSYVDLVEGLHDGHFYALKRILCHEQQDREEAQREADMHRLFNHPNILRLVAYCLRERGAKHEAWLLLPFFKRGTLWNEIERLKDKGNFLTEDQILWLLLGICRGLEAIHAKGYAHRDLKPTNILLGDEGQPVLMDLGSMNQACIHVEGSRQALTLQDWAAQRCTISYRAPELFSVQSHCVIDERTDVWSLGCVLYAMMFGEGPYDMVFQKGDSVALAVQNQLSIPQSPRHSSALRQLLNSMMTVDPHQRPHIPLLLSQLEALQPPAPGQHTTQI

For the molecule `COc1nc(N[C@H]2CC[C@H](NS(=O)(=O)CC(C)C)CC2)nc2[nH]nc(N3CCOC[C@H]3C)c12` [compound 39, N-(trans-4-((4-Methoxy-3-((R)-3-methylmorpholino)-1H-pyrazolo[3,4-d]pyrimidin-6-yl)amino)cyclohexyl)-2-methylpropane-1-sulfonamide], the pIC50 on PRKCB, at GAK, on MAP2K5, at PIP4K2C, on YES1 and at CLK2 was ≤ 4.70 each time. Besides, the pIC50 at CAMK1, at TAOK1, at OXSR1, at ACVR1B, at STK16 and on LYN was ≤ 4.70 in each case. In addition, the pIC50 on NEK1 was ≤ 4.70; at MAPK3, ≤ 4.70; on FLT4, ≤ 4.70; at TNK1, ≤ 4.70; on NLK, 5.46; on SYK it was ≤ 4.70. Further, the negative logarithm of the IC50 (pIC50) at TESK2, on FGFR1 and on TEK was ≤ 4.70 throughout.

A word on the pIC50: it is the negative decadic logarithm of the IC50, by convention in mol/L. High values mean a low IC50, low ones a high IC50.
